Here are results for eleven compounds from ChEMBL document CHEMBL2346658, “8,8-dialkyldihydroberberines with potent antiprotozoal activity” (J Nat Prod, 2013).

Molecules are shown by their SMILES. Counter-ions that a name gives are not always drawn. The source made the active and inactive calls. The rule behind the calls is not given here. Some results are limits rather than exact numbers.

The test system of one data set is Vero. Description: Cytotoxicity against african green monkey Vero cells. The format is cell-based. As to conditions: Chlorocebus sabaeus.
Data set [1] in a line: Selectivity index, ratio of IC50 for african green monkey Vero cells to IC50 for Trypanosoma brucei brucei blood-stream forms. The class given is toxicity, cell-based. The following applies: read-out: Ratio IC50.
Data set [2] can be described thus: Selectivity index, ratio of IC50 for african green monkey Vero cells to IC50 for Leishmania donovani. The class given is toxicity, cell-based. As to conditions: read-out: Ratio IC50.
Data set [3] has as its system Trypanosoma brucei rhodesiense. Description: Antitrypanosomal activity against Trypanosoma brucei rhodesiense STIB900 infected in NMRI mouse assessed as infection cure rate at 1 mg/kg/day for 4 days starting from 3 to 6 days post-infection measured on day 10. The format is functional, organism-based.
Data set [4] concerns Leishmania donovani. The experiment in a line: Potency index, ratio of IC50 for chloroquine to IC50 for compound against Leishmania donovani. The format is functional.
Data set [5] concerns Trypanosoma brucei rhodesiense. Description: Antitrypanosomal activity against Trypanosoma brucei rhodesiense STIB900 infected in NMRI mouse assessed as infection cure rate at 1 mg/kg/day for 4 days starting from 3 to 6 days post-infection measured on day 7. The class given is functional, organism-based.
The nature of data set [6]: Binding affinity to poly(dA.dT) DNA (unknown origin) assessed as change in melting temperature.
The subject of data set [7] is Leishmania donovani. The experiment in a line: Antileishmanial activity against Leishmania donovani. The format is functional, organism-based.
For the next data set, the system named is Plasmodium falciparum. The experiment in a line: Antimalarial activity against erythrocyte stage Plasmodium falciparum 3D7. The class given is functional, organism-based.
The subject of data set [8] is Trypanosoma brucei brucei. Description: Antitrypanosomal activity against Trypanosoma brucei brucei blood-stream forms. The class given is functional, organism-based.
Data set [9] in a line: Selectivity index, ratio of IC50 for african green monkey Vero cells to IC50 for erythrocyte stage Plasmodium falciparum 3D7. The following applies: read-out: Ratio IC50. The class given is toxicity, cell-based.
In data set [10] the test system is Trypanosoma brucei rhodesiense. The experiment in a line: Antitrypanosomal activity against Trypanosoma brucei rhodesiense STIB900 infected in NMRI mouse assessed as infection cure rate at 10 mg/kg/day for 4 days starting from 3 to 6 days post-infection measured on day 10. The class given is functional, organism-based.
Another data set has as its system Mus musculus. Description: Toxicity in BALB/c mouse assessed as induction of overt toxicity at 10 mg/kg/day, ip for 5 days. The format is organism-based. As to conditions: in vivo, 120 h. Also noted: route intraperitoneal.
Data set [11] concerns Leishmania donovani. Description: Antileishmanial activity against Leishmania donovani LV82 infected in BALB/c mouse model of visceral leishmaniasis assessed as inhibition of liver parasitemia at 10 mg/kg/day, ip for 5 days starting 7 days post-infection. The format is functional. As to conditions: route intraperitoneal.
For data set [12], the system named is Trypanosoma brucei rhodesiense. Description: Antitrypanosomal activity against Trypanosoma brucei rhodesiense STIB900 infected in NMRI mouse assessed as infection cure rate at 10 mg/kg/day for 4 days starting from 3 to 6 days post-infection measured on day 7. The class given is functional, organism-based.

On to `CCC1(CC)c2c(ccc(OC)c2OC)C(=O)c2c3cc4c(cc3cc[n+]21)OCO4.[Cl-]`, for which the IC50 (commonly the concentration that inhibits the measured activity by half) in the data set on Vero stood at 39000 nM; in the data set with Leishmania donovani [7], 290 nM; in the data set on Plasmodium falciparum it was 20 nM; in [8], 2 nM. The selectivity ratio was 3000 in [1], above 100 in data set [2] and above 600 in data set [9]. Further, the outcome in data set [3] was inactive. Moreover, the “Ratio IC50” value with Leishmania donovani [4] was 4. Moreover, the result in [5] was Active. In addition, the ΔTm (as a rule, the change in melting temperature against a reference sample) in data set [6] was found to be 0.5 °C.
Turning to `CCC1(CC)c2c(ccc(OC)c2OC)CC2c3cc4c(cc3CCN21)OCO4` (stereo unspecified) [8,8-DIETHYLCANADINE], the results for the concentration for half-maximal inhibition (IC50) (in the data set on Leishmania donovani [7]; in the data set with Plasmodium falciparum; in [8]) were 8900 nM, 1700 nM and 230 nM, respectively.
On the same counts, the results for `COc1ccc2c(c1OC)C(C)(C)N1CCc3cc4c(cc3C1C2)OCO4` (stereo unspecified) [8,8-DIMETHYLCANADINE] are 7300 nM, 7300 nM and 52000 nM.
As to `CCC1(CC)c2c(ccc(OC)c2OC)CC2=[N+]1CCc1cc3c(cc12)OCO3.[Cl-]` [8,8-Diethyldihydroberberine], the IC50 in the data set with Vero was determined as 18000 nM; with Leishmania donovani [7] it was 100 nM; in the data set with Plasmodium falciparum, 77 nM; in data set [8], 5.3 nM. Also, the result in data set [10] was inactive. For the same compound, the selectivity ratio in data set [1] is 3000; in data set [2], above 100. Besides, the Activity entry with Mus musculus is given as “Non-toxic”. Further, in the data set on Leishmania donovani [11], the inhibition in vivo (as a rule, the share of the control response that was lost under treatment) at 10 mg/kg/day turned out to be 29%. Further, the outcome in [12] was Active. Further, in data set [6], the ΔTm was 0.5 °C.
Turning to `CCCC1(CCC)c2c(ccc(OC)c2OC)CC2=[N+]1CCc1cc3c(cc12)OCO3.[Cl-]` [8,8-Dipropyldihydroberberine], the 50% inhibitory concentration (IC50) is 19000 nM in the data set with Vero, 550 nM in the data set on Leishmania donovani [7], 30 nM with Plasmodium falciparum and 53 nM in data set [8]. Besides, the Activity result in the data set on Mus musculus is given as “Non-toxic”. Also, the inhibition in vivo at 10 mg/kg/day in the data set on Leishmania donovani [11] is 32%. Further, in the data set with Leishmania donovani [4], the “Ratio IC50” value turned out to be 4. In addition, the thermal shift (ΔTm) in data set [6] came out at 0 °C. The selectivity ratio in data set [9] was above 600.
In the case of `COc1ccc2c(c1OC)C(C)(C)[N+]1=C(C2)c2cc3c(cc2CC1)OCO3.[Cl-]` [8,8-dimethyldihydroberberine], the 50% inhibitory concentration (IC50) in the data set with Vero came out at 8800 nM; in the data set with Leishmania donovani [7], 200 nM; in the data set with Plasmodium falciparum, 63 nM; in data set [8] it was 4600 nM. Further, in the data set with Mus musculus, the Activity entry was “Non-toxic”. The inhibition in vivo at 10 mg/kg/day in the data set with Leishmania donovani [11] was determined as 46%. Besides, the thermal shift (ΔTm) in [6] came to 0.3 °C.
In the data set on Leishmania donovani [7], `C[C@@H]1[C@H](O)[C@@H](C)/C=C/C=C/C=C/C=C/C=C/C=C/C=C/[C@H](O[C@@H]2O[C@H](C)[C@@H](O)[C@H](N)[C@@H]2O)C[C@@H]2O[C@](O)(C[C@@H](O)C[C@@H](O)[C@H](O)CC[C@@H](O)C[C@@H](O)CC(=O)O[C@H]1C)C[C@H](O)[C@H]2C(=O)O` [AMPHOTERICIN B] yielded a concentration for half-maximal inhibition (IC50) of 46 nM.
Take `COc1ccc2cc3[n+](cc2c1OC)CCc1cc2c(cc1-3)OCO2` [BERBERINE SULFATE]: the IC50 in the data set on Vero is above 200000 nM; with Leishmania donovani [7], 17000 nM. The ΔTm in data set [6] turned out to be 3.5 °C.
With `CCCCCCCCCCCCCCCCOP(=O)([O-])OCC[N+](C)(C)C` [MILTEFOSINE], in the data set on Leishmania donovani [11], the inhibition in vivo at 10 mg/kg/day came out at 97%.
On to `COc1cc([C@@H]2c3cc4c(cc3[C@H](O)[C@H]3COC(=O)[C@H]23)OCO4)cc(OC)c1OC` [PODOFILOX], for which, in the data set with Vero, the 50% inhibitory concentration (IC50) stood at 17 nM.
`Cc1ccc(C(=O)Nc2ccc(S(=O)(=O)O)c3cc(S(=O)(=O)O)cc(S(=O)(=O)O)c23)cc1NC(=O)c1cccc(NC(=O)Nc2cccc(C(=O)Nc3cc(C(=O)Nc4ccc(S(=O)(=O)O)c5cc(S(=O)(=O)O)cc(S(=O)(=O)O)c45)ccc3C)c2)c1` [SURAMIN] registered an IC50 in data set [8] of 130 nM.
